Assay results from patent US6737383B1, “Herbicidal oxadiazolidines” (priority 1999, dated 2004).

Experiments:
giant foxtail = experiment: Test B pre/postemergence giant foxtail; assay type: in vivo, Setaria faberii
How it was run: (§1)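 Test chemicals in a non-phytotoxic solvent mixture with surfactant were sprayed preemergence onto planted seeds and postemergence onto plants 2 to 18 cm tall (1- to 4-leaf stage). After twelve to sixteen days in a greenhouse, injury was visually rated against untreated controls from 0 (no effect) to 10 (complete control).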

morningglory = experiment: Test B pre/postemergence morningglory; assay type: in vivo, Ipomoea hederacea
How it was run: as §1

cocklebur = experiment: Test B pre/postemergence cocklebur; assay type: in vivo, Xanthium strumarium
How it was run: as §1

surinam grass = experiment: Test B pre/postemergence surinam grass; assay type: in vivo, Brachiaria decumbens
How it was run: as §1

sugar beet = experiment: Test B pre/postemergence sugar beet; assay type: in vivo, Beta vulgaris
How it was run: as §1

duck salad = experiment: Test B flood test duck salad; assay type: in vivo, Heteranthera limosa
How it was run: (§2)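 Plants were grown to the 2-leaf stage before treatment with test chemical, then held in a greenhouse for twelve to sixteen days. Injury was visually rated against untreated controls on a 0–10 scale, where 0 is no effect and 10 is complete control.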

corn = experiment: Test B pre/postemergence corn; assay type: in vivo, Zea mays
How it was run: as §1

rape = experiment: Test B pre/postemergence rape; assay type: in vivo, Brassica napus
How it was run: as §1

velvetleaf = experiment: Test B pre/postemergence velvetleaf; assay type: in vivo, Abutilon theophrasti
How it was run: as §1

crabgrass = experiment: Test B pre/postemergence crabgrass; assay type: in vivo, Digitaria sanguinalis
How it was run: as §1

soybean = experiment: Test B pre/postemergence soybean; assay type: in vivo, Glycine max
How it was run: as §1

smallflower flatsedge = experiment: Test B flood test smallflower flatsedge; assay type: in vivo, Cyperus difformis
How it was run: as §2

wheat = experiment: Test B pre/postemergence wheat; assay type: in vivo, Triticum aestivum
How it was run: as §1

wild oat = experiment: Test B pre/postemergence wild oat; assay type: in vivo, Avena fatua
How it was run: as §1

purple nutsedge = experiment: Test B pre/postemergence purple nutsedge; assay type: in vivo, Cyperus rotundus
How it was run: as §1

blackgrass = experiment: Test B pre/postemergence blackgrass; assay type: in vivo, Alopecurus myosuroides
How it was run: as §1

[1] = Postemergence, Rate 62 g/ha, scale of 0 to 10, 0 is no effect, 10 is complete control
[2] = Postemergence, Rate 125 g/ha, scale 0 to 10, 0 is no effect, 10 is complete control
[3] = Postemergence, Rate 500 g/ha, scale of 0 to 10 where 0 is no effect and 10 is complete control
[4] = Preemergence, Rate 62 g/ha, scale 0 to 10 (0 no effect, 10 complete control)
[5] = Preemergence, Rate 125 g/ha, scale 0 to 10, 0 is no effect, 10 is complete control
[6] = Preemergence, Rate 500 g/ha, scale of 0 to 10 where 0 is no effect and 10 is complete control
[7] = Rate 250 g/ha, Postemergence, scale of 0 to 10 where 0 is no effect and 10 is complete control
[8] = Rate 62 g/ha, flood test species, Pre-emergence, visual evaluation after twelve to sixteen days
[9] = Rate 125 g/ha, under heading Pre-emergence, flood test species, visual evaluation after twelve to sixteen days
[10] = Rate 250 g/ha, Pre-emergence (flood test species), scale 0 to 10, 0 is no effect, 10 is complete control
[11] = Rate 500 g/ha, Pre-emergence section of Table B, 0 to 10 scale (0 no effect, 10 complete control)

Question: Which results are given for `CCCCn1c(=O)on(C(=O)N(c2ccccc2)C(C)C)c1=O` [Compound 556]?
Answer: Giant foxtail plant response rating (giant foxtail; [1]): 4; Giant foxtail plant response rating (giant foxtail; [2]): 7; Plant response rating, Giant foxtail (giant foxtail; [3]): 9; Giant foxtail plant response rating (giant foxtail; [4]): 9; Giant foxtail plant response rating (giant foxtail; [5]): 9; Giant foxtail plant response rating (0 to 10 scale) (giant foxtail; Preemergence, Rate 250 g/ha): 10; Giant foxtail plant response rating (giant foxtail; [6]): 10; Plant response rating, Giant foxtail (giant foxtail; [7]): 9; Morningglory plant response rating (morningglory; [1]): 0; Morningglory plant response rating (morningglory; [2]): 2; Plant response rating, Morningglory (morningglory; [3]): 10; Morningglory plant response rating (morningglory; [4]): 0; Morningglory plant response rating (morningglory; [5]): 0; Morningglory plant response rating (0 to 10 scale) (morningglory; Preemergence, Rate 250 g/ha): 0; Morningglory plant response rating (morningglory; [6]): 0; Plant response rating, Morningglory (morningglory; [7]): 4; Cocklebur plant response rating (cocklebur; [1]): 0; Cocklebur plant response rating (cocklebur; [2]): 0; Plant response rating, Cocklebur (cocklebur; [3]): 0; Cocklebur plant response rating (cocklebur; [4]): 0; Cocklebur plant response rating (cocklebur; [5]): 0; Cocklebur plant response rating (0 to 10 scale) (cocklebur; Preemergence, Rate 250 g/ha): 0; Cocklebur plant response rating (cocklebur; [6]): 0; Plant response rating, Cocklebur (cocklebur; [7]): 0; B. signalgrass plant response rating (surinam grass; [1]): 0; B. signalgrass plant response rating (surinam grass; [2]): 2; Plant response rating, B. signalgrass (surinam grass; [3]): 7; B. signalgrass plant response rating (surinam grass; [4]): 6; B. signalgrass plant response rating (surinam grass; [5]): 7; B. signalgrass plant response rating (0 to 10 scale, 0 is no effect, 10 is complete control) (surinam grass; Preemergence, Rate 250 g/ha): 7; B. signalgrass plant response rating (surinam grass; [6]): 9; Plant response rating, B. signalgrass (surinam grass; [7]): 4; Sugarbeets plant response rating (sugar beet; [1]): 0; Plant response rating, Sugarbeets (sugar beet; [3]): 0; Sugarbeets plant response rating (sugar beet; [4]): 0; Sugarbeets plant response rating (sugar beet; [5]): 0; Sugarbeets plant response rating (0 to 10 scale) (sugar beet; Preemergence, Rate 250 g/ha): 0; Sugarbeets plant response rating (sugar beet; [6]): 0; Plant response rating, Sugarbeets (sugar beet; [7]): 0; Plant response rating, Ducksalad (0 to 10 scale, 0 is no effect, 10 is complete control) (duck salad; [8]): 0; Ducksalad plant response rating (0 to 10 scale, 0 is no effect, 10 is complete control) (duck salad; [9]): 0; Ducksalad plant response rating (duck salad; [10]): 0; Ducksalad plant response rating (duck salad; [11]): 0; Corn plant response rating (corn; [1]): 0; Corn plant response rating (corn; [2]): 0; Plant response rating, Corn (corn; [3]): 0; Corn plant response rating (corn; [4]): 0; Corn plant response rating (corn; [5]): 0; Corn plant response rating (0 to 10 scale) (corn; Preemergence, Rate 250 g/ha): 0; Corn plant response rating (corn; [6]): 0; Plant response rating, Corn (corn; [7]): 0; Rape plant response rating (rape; [1]): 0; Rape plant response rating (rape; [2]): 0; Plant response rating, Rape (rape; [3]): 2; Rape plant response rating (rape; [4]): 0; Rape plant response rating (rape; [5]): 3; Rape plant response rating (0 to 10 scale) (rape; Preemergence, Rate 250 g/ha): 3; Rape plant response rating (rape; [6]): 8; Plant response rating, Rape (rape; [7]): 0; Velvetleaf plant response rating (velvetleaf; [1]): 0; Plant response rating, Velvetleaf (velvetleaf; [3]): 2; Velvetleaf plant response rating (velvetleaf; [4]): 0; Velvetleaf plant response rating (velvetleaf; [5]): 2; Velvetleaf plant response rating (0 to 10 scale) (velvetleaf; Preemergence, Rate 250 g/ha): 3; Velvetleaf plant response rating (velvetleaf; [6]): 3; Plant response rating, Velvetleaf (velvetleaf; [7]): 0; Crabgrass plant response rating (crabgrass; [1]): 0; Crabgrass plant response rating (crabgrass; [2]): 2; Plant response rating, Crabgrass (crabgrass; [3]): 2; Crabgrass plant response rating (crabgrass; [4]): 9; Crabgrass plant response rating (crabgrass; [5]): 9; Crabgrass plant response rating (0 to 10 scale) (crabgrass; Preemergence, Rate 250 g/ha): 9; Crabgrass plant response rating (crabgrass; [6]): 10; Plant response rating, Crabgrass (crabgrass; [7]): 2; Soybean plant response rating (soybean; [1]): 0; Plant response rating, Soybean (soybean; [3]): 8; Soybean plant response rating (soybean; [4]): 0; Soybean plant response rating (soybean; [5]): 0; Soybean plant response rating (0 to 10 scale) (soybean; Preemergence, Rate 250 g/ha): 0; Soybean plant response rating (soybean; [6]): 0; Plant response rating, Soybean (soybean; [7]): 3; Plant response rating, S. Flatsedge (0 to 10 scale, 0 is no effect, 10 is complete control) (smallflower flatsedge; [8]): 0; S. Flatsedge plant response rating (0 to 10 scale, 0 is no effect, 10 is complete control) (smallflower flatsedge; [9]): 0; S. Flatsedge plant response rating (smallflower flatsedge; [10]): 0; S. Flatsedge plant response rating (smallflower flatsedge; [11]): 0; Wheat plant response rating (wheat; [1]): 0; Plant response rating, Wheat (wheat; [3]): 3; Wheat plant response rating (wheat; [4]): 0; Wheat plant response rating (wheat; [5]): 0; Wheat plant response rating (0 to 10 scale) (wheat; Preemergence, Rate 250 g/ha): 3; Wheat plant response rating (wheat; [6]): 4; Plant response rating, Wheat (wheat; [7]): 2; Wild oats plant response rating (wild oat; [1]): 2; Plant response rating, Wild oats (wild oat; [3]): 2; Wild oats plant response rating (wild oat; [4]): 0; Wild oats plant response rating (wild oat; [5]): 0; Wild oats plant response rating (0 to 10 scale) (wild oat; Preemergence, Rate 250 g/ha): 4; Wild oats plant response rating (wild oat; [6]): 6; Plant response rating, Wild oats (wild oat; [7]): 2; Nutsedge plant response rating (purple nutsedge; [1]): 0; Nutsedge plant response rating (purple nutsedge; [2]): 0; Plant response rating, Nutsedge (purple nutsedge; [3]): 0; Nutsedge plant response rating (purple nutsedge; [4]): 0; Nutsedge plant response rating (purple nutsedge; [5]): 0; Nutsedge plant response rating (0 to 10 scale) (purple nutsedge; Preemergence, Rate 250 g/ha): 0; Nutsedge plant response rating (purple nutsedge; [6]): 0; Plant response rating, Nutsedge (purple nutsedge; [7]): 0; Blackgrass plant response rating (blackgrass; [1]): 0; Blackgrass plant response rating (blackgrass; [2]): 3; Plant response rating, Blackgrass (blackgrass; [3]): 6; Blackgrass plant response rating (blackgrass; [4]): 6; Blackgrass plant response rating (blackgrass; [5]): 9; Blackgrass plant response rating (0 to 10 scale) (blackgrass; Preemergence, Rate 250 g/ha): 10; Blackgrass plant response rating (blackgrass; [6]): 10; Plant response rating, Blackgrass (blackgrass; [7]): 3
